In patent publication US10874743B2, “IRAK degraders and uses thereof” (Kymera Therapeutics, Inc., priority 2017, dated 2020):

Molecular target: T1, IRAK4 (Homo sapiens, UniProt Q9NWZ3)
T1 sequence (Q9NWZ3 1-460): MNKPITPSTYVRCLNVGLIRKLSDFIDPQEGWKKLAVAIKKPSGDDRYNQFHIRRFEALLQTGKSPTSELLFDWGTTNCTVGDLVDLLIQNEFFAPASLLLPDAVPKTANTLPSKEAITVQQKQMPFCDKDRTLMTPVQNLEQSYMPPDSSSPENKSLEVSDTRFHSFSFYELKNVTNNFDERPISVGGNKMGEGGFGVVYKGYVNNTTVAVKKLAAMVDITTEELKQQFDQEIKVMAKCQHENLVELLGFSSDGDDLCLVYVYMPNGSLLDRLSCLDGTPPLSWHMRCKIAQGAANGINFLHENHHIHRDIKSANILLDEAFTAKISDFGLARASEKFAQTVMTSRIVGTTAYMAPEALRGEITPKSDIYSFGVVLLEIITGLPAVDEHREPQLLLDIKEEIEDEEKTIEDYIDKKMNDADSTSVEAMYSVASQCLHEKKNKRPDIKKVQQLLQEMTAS
Test: OCI-LY-10 degradation assay (western blot, % IRAK4 degraded after 4 hours)
Type: cell-based
Design: endogenous in cells; host or cells: OCI-LY10
Conditions: OCI-LY10 cells; for OCI-LY10 % IRAK4 Degradation (0.01 uM) / OCI-LY10 % IRAK4 Degradation (0.1 uM) / OCI-LY10 % IRAK4 Degradation (1 uM): 4 hours; for OCI-LY10 % IRAK4 Degradation (0.01 uM): 0.01 uM compound; for OCI-LY10 % IRAK4 Degradation (0.1 uM): 0.1 uM compound; for OCI-LY10 % IRAK4 Degradation (1 uM): 1 uM compound; for OCI-LY10 % IRAK4 Degradation: IRAK4 degraded after 4 hours, western blot
Outline: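 IRAK4 loss after 4 h at 37° C was scored A (>50%), B (>20-50%) or C (<20%) from infrared western blots of RIPA lysates, 20-25 μg protein per lane. Compound was applied at 0.003-10 μM final to OCI-LY10 cells cultured in RPMI-1640 with 20% FBS and 55 μM 2-ME.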

SMILES	OCI-LY10 % IRAK4 Degradation (0.01 uM)	OCI-LY10 % IRAK4 Degradation (0.1 uM)	OCI-LY10 % IRAK4 Degradation (1 uM)	OCI-LY10 % IRAK4 Degradation
O=C1CCC(N2C(=O)c3cccc(CCOCCN4CCC(n5cc(NC(=O)c6coc(-c7ccnc(NCC8CC8)c7)n6)c(C(F)F)n5)CC4)c3C2=O)C(=O)N1 (stereo not drawn) [I-257]	C (<20% degradation)	C (<20% degradation)	C (<20% degradation)	
CC(C)(OCCOCCOCCOCCNc1cccc2c1C(=O)N(C1CCC(=O)NC1=O)C2=O)C(F)CNC(=O)c1cnc(-n2ncc3cc(C#N)cnc32)cc1NC1CC1 (stereo not drawn) [I-73]				C (<20% degradation)
CC(OCCOCCOCCOCCNc1cccc2c1C(=O)N(C1CCC(=O)NC1=O)C2=O)C(F)CNC(=O)c1cnc(-n2ncc3cc(C#N)cnc32)cc1NC1CC1 (stereo not drawn) [I-71]				C (<20% degradation)
O=C1CCC(N2C(=O)c3cccc(NCCOCCN4CCO[C@H](CNC(=O)c5ccc(-n6cc(NC(=O)c7coc(-c8ccnc(NCC9CC9)c8)n7)c(C(F)F)n6)cc5)C4)c3C2=O)C(=O)N1 (stereo partly drawn) [I-250]	C (<20% degradation)	A (>50% degradation)	A (>50% degradation)	
CC(OCCOCCOCCNc1cccc2c1C(=O)N(C1CCC(=O)NC1=O)C2=O)C(F)CNC(=O)c1cnc(-n2ncc3cc(C#N)cnc32)cc1NC1CC1 (stereo not drawn) [I-63]				C (<20% degradation)
CN(CCOCCOCCNc1cccc2c1C(=O)N(C1CCC(=O)NC1=O)C2=O)C(=O)[C@H]1CC[C@H](NC(=O)c2cnc(-n3ncc4cc(C#N)cnc43)cc2NC2CC2)CC1 (stereo partly drawn) [I-42, 6-(5-cyano-1H-pyrazolo[3,4-b]pyridin-1-yl)-4-(cyclopropylamino)-N-((1r,4r)-4-((2-(2-(2-((2-(2,6-dioxopiperidin-3-yl)-1,3-dioxoisoindolin-4-yl)amino)ethoxy)ethoxy)ethyl) (methyl)carbamoyl)cyclohexyl)nicotinamide]				C (<20% degradation)
N[C@@H]1CCCC[C@@H]1Nc1ccn2nc(-c3cn(-c4ccc(C(=O)NCCOCCOCCNc5cccc6c5C(=O)N(C5CCC(=O)NC5=O)C6=O)cc4)nc3C(F)F)cc2n1 (stereo partly drawn) [I-142]				B (>20-50% degradation)
Cc1ncsc1-c1ccc(CNC(=O)C2C[C@@H](O)CN2C(=O)[C@@H](NC(=O)COCCOCCOCCOCCOC(C)C(F)CNC(=O)c2cnc(-n3ncc4cc(C#N)cnc43)cc2NC2CC2)C(C)(C)C)cc1 (stereo partly drawn) [I-121]				C (<20% degradation)
O=C1CCC(N2C(=O)c3cccc(N4CCN(CCOCCOCCOCCNC(=O)c5ccc(-n6cc(NC(=O)c7coc(-c8ccnc(NCC9CC9)c8)n7)c(C(F)F)n6)cc5)CC4)c3C2=O)C(=O)N1 (stereo not drawn) [I-275]	C (<20% degradation)	B (>20-50% degradation)	A (>50% degradation)	
N#Cc1cnc2c(cnn2-c2cc(NC3CC3)c(C(=O)N[C@H]3C[C@H](C(=O)NCCOCCOCCOCCOCCNc4cccc5c4C(=O)N(C4CCC(=O)NC4=O)C5=O)C3)cn2)c1 (stereo partly drawn) [I-21, 6-(5-cyano-1H-pyrazolo[3,4-b]pyridin-1-yl)-4-(cyclopropylamino)-N-((1r,3r)-3-((14-((2-(2,6-dioxopiperidin-3-yl)-1,3-dioxoisoindolin-4-yl)amino)-3,6,9,12-tetraoxatetradecyl)carbamoyl)cyclobutyl)nicotinamide]				C (<20% degradation)
NC(=O)[C@@H](O)C[C@H]1CCc2sc3ncnc(O[C@H]4CC[C@H](N5CCN(C(=O)COCCNc6cccc7c6C(=O)N(C6CCC(=O)NC6=O)C7=O)CC5)CC4)c3c21 (stereo partly drawn) [I-153]				C (<20% degradation)
NC(=O)[C@H](O)C[C@H]1CCc2sc3ncnc(O[C@H]4CC[C@H](N5CCN(CCOCCOCCNc6cccc7c6C(=O)N(C6CCC(=O)NC6=O)C7=O)CC5)CC4)c3c21 (stereo partly drawn) [I-91, (2R)-3-[(8R)-1-[4-[4-[2-[2-[2-[[2-(2,6-dioxo-3-piperidyl)-1,3-dioxo-isoindolin-4-yl]amino]ethoxy]ethoxy]ethyl]piperazin-1-yl]cyclohexoxy]-7,8-dihydro-6H-cyclopenta[4,5]thieno[1,2-c]pyrimidin-8-yl]-2-hydroxy-propanamide]				C (<20% degradation)
CC[C@@H]1[C@H](F)C(=O)N[C@@H]1COc1nccc2cc(C(=O)NCCOCCOCCOCCOCCNC(=O)COc3cccc4c3C(=O)N(C3CCC(=O)NC3=O)C4=O)c(OC)cc12 (stereo partly drawn) [I-103]				C (<20% degradation)

Next, values leading:

OCI-LY10 % IRAK4 Degradation (0.01 uM)	OCI-LY10 % IRAK4 Degradation (0.1 uM)	OCI-LY10 % IRAK4 Degradation (1 uM)	OCI-LY10 % IRAK4 Degradation	SMILES
C (<20% degradation)	C (<20% degradation)	A (>50% degradation)		O=C1CCC(N2C(=O)c3ccc(NC4CCN(CCOCCOCCNCc5ccc(-n6cc(NC(=O)c7coc(-c8ccnc(NCC9CC9)c8)n7)c(C(F)F)n6)cc5)CC4)cc3C2=O)C(=O)N1 (stereo not drawn) [I-335]
C (<20% degradation)	C (<20% degradation)	C (<20% degradation)		NC(=O)c1nn(CCCCCCOCCOCCNc2cccc3c2C(=O)N(C2CCC(=O)NC2=O)C3=O)cc1NC(=O)c1coc(-c2ccnc(NCC3CC3)c2)n1 (stereo not drawn) [I-435, N-[3-carbamoyl-1-[6-[2-[2-[[2-(2,6-dioxo-3-piperidyl)-1,3-dioxo-isoindolin-4-yl]amino]ethoxy]ethoxy]hexyl]pyrazol-4-yl]-2-[2-(cyclopropylmethylamino)-4-pyridyl]oxazole-4-carboxamide]
C (<20% degradation)	C (<20% degradation)	C (<20% degradation)		NC(=O)c1nn(-c2ccc(CNCCCc3ccc4c(c3)C(=O)N(C3CCC(=O)NC3=O)C4=O)cc2)cc1NC(=O)c1coc(-c2ccncc2)n1 (stereo not drawn) [I-372]
			B (>20-50% degradation)	NC(=O)c1nn(-c2ccc(C(=O)NCCOCCOCCNc3cccc4c3C(=O)N(C3CCC(=O)NC3=O)C4=O)cc2)cc1NC(=O)c1coc(-c2ccncc2)n1 (stereo not drawn) [I-140]
C (<20% degradation)	C (<20% degradation)	C (<20% degradation)		CN(CCCCCCCCCc1cccc2c1C(=O)N(C1CCC(=O)NC1=O)C2=O)C(=O)c1ccc(-n2cc(NC(=O)c3coc(-c4ccnc(NCC5CC5)c4)n3)c(C(N)=O)n2)cc1 (stereo not drawn) [I-230]
C (<20% degradation)	C (<20% degradation)	C (<20% degradation)		CN(CCNCCCc1cccc2c1C(=O)N(C1CCC(=O)NC1=O)C2=O)C(=O)c1ccc(-n2cc(NC(=O)c3coc(-c4ccncc4)n3)c(C(F)F)n2)cc1 (stereo not drawn) [I-364]
C (<20% degradation)	C (<20% degradation)	A (>50% degradation)		NC(=O)c1nn(-c2ccc(CNCCOCCOCCOCCOCCCc3cccc4c3C(=O)N(C3CCC(=O)NC3=O)C4=O)cc2)cc1NC(=O)c1coc(-c2ccnc(NCC(F)(F)F)c2)n1 (stereo not drawn) [I-322]
C (<20% degradation)	B (>20-50% degradation)	C (<20% degradation)		Cn1c(=O)n(C2CCC(=O)NC2=O)c2ccc(CCCOCCOCCNCc3ccc(-n4cc(NC(=O)c5coc(-c6ccnc(NCC7CC7)c6)n5)c(C(F)F)n4)cc3)cc21 (stereo not drawn) [I-331]
C (<20% degradation)	C (<20% degradation)	C (<20% degradation)		O=C1CCC(N2C(=O)c3ccc(CCCCCN4CCC(n5cc(NC(=O)c6coc(-c7ccnc(NCC8CC8)c7)n6)c(C(F)F)n5)CC4)cc3C2=O)C(=O)N1 (stereo not drawn) [I-263]
B (>20-50% degradation)	A (>50% degradation)	A (>50% degradation)		NC(=O)c1nn(-c2ccc(CNCCOCCOCCOCCCc3cccc4c3CN(C3CCC(=O)NC3=O)C4=O)cc2)cc1NC(=O)c1coc(-c2ccnc(NCC3CC3)c2)n1 (stereo not drawn) [I-325]
C (<20% degradation)	C (<20% degradation)	C (<20% degradation)		O=C1CCC(N2C(=O)c3ccc(CCCNC(=O)c4ccc(-n5cc(NC(=O)c6coc(-c7ccncc7)n6)c(C(F)F)n5)cc4)cc3C2=O)C(=O)N1 (stereo not drawn) [I-260]
C (<20% degradation)	B (>20-50% degradation)	A (>50% degradation)		CN(CCOCCCc1cccc2c1C(=O)N(C1CCC(=O)NC1=O)C2=O)Cc1ccc(-n2cc(NC(=O)c3coc(-c4ccnc(NCC5CC5)c4)n3)c(C(F)F)n2)cc1 (stereo not drawn) [I-362]
B (>20-50% degradation)	B (>20-50% degradation)	B (>20-50% degradation)		O=C1CCC(N2C(=O)c3cccc(NCCOCCNC(=O)c4ccc(-n5cc(NC(=O)c6coc(-c7ccnc(NCC8CC8)c7)n6)c(C(F)F)n5)cc4)c3C2=O)C(=O)N1 (stereo not drawn) [I-211]
			B (>20-50% degradation)	NC(=O)c1nn(-c2cccc(C(=O)NCCOCCOCCOCCOCCNc3cccc4c3C(=O)N(C3CCC(=O)NC3=O)C4=O)c2)cc1NC(=O)c1coc(-c2ccnc(NCC(F)(F)F)c2)n1 (stereo not drawn) [I-136]
